Source: patent US12559506B2, “Indazole based compounds and associated methods of use” (Arvinas Operations, Inc., priority 2021, dated 2026)

Target: T1, LRRK2 (endogenous, HiBit tagged) (Homo sapiens, UniProt Q5S007)
T1 construct: endogenous in cells; host or cells: HEK293 cells with HiBit knock-in at the endogenous LRRK2 locus, stably expressing firefly luciferase
Assay: Endogenous LRRK2 degradation assay, endogenous gene C-terminally HiBit-tagged in HEK293 cells (Nano-Glo Dual Luciferase)
Type: cell-based
Settings: endogenous HiBit-tagged LRRK2 in HEK293 cells, 24 hours treatment; for Dmax: read-out: **Endogenous WT Dmax (%); for DC50: read-out: *Endogenous WT DC50
Summary of the method: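 LRRK2-HiBit quantified via Nano-Glo Dual Luciferase in HEK293 knock-in cells co-expressing firefly luciferase, after 24 h exposure to compound (1 μM final top, 1:3, 11 points). Values normalised to DMSO median per plate and curve-fitted; Alamar Blue viability run alongside.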

T1 sequence (Q5S007 whole entry): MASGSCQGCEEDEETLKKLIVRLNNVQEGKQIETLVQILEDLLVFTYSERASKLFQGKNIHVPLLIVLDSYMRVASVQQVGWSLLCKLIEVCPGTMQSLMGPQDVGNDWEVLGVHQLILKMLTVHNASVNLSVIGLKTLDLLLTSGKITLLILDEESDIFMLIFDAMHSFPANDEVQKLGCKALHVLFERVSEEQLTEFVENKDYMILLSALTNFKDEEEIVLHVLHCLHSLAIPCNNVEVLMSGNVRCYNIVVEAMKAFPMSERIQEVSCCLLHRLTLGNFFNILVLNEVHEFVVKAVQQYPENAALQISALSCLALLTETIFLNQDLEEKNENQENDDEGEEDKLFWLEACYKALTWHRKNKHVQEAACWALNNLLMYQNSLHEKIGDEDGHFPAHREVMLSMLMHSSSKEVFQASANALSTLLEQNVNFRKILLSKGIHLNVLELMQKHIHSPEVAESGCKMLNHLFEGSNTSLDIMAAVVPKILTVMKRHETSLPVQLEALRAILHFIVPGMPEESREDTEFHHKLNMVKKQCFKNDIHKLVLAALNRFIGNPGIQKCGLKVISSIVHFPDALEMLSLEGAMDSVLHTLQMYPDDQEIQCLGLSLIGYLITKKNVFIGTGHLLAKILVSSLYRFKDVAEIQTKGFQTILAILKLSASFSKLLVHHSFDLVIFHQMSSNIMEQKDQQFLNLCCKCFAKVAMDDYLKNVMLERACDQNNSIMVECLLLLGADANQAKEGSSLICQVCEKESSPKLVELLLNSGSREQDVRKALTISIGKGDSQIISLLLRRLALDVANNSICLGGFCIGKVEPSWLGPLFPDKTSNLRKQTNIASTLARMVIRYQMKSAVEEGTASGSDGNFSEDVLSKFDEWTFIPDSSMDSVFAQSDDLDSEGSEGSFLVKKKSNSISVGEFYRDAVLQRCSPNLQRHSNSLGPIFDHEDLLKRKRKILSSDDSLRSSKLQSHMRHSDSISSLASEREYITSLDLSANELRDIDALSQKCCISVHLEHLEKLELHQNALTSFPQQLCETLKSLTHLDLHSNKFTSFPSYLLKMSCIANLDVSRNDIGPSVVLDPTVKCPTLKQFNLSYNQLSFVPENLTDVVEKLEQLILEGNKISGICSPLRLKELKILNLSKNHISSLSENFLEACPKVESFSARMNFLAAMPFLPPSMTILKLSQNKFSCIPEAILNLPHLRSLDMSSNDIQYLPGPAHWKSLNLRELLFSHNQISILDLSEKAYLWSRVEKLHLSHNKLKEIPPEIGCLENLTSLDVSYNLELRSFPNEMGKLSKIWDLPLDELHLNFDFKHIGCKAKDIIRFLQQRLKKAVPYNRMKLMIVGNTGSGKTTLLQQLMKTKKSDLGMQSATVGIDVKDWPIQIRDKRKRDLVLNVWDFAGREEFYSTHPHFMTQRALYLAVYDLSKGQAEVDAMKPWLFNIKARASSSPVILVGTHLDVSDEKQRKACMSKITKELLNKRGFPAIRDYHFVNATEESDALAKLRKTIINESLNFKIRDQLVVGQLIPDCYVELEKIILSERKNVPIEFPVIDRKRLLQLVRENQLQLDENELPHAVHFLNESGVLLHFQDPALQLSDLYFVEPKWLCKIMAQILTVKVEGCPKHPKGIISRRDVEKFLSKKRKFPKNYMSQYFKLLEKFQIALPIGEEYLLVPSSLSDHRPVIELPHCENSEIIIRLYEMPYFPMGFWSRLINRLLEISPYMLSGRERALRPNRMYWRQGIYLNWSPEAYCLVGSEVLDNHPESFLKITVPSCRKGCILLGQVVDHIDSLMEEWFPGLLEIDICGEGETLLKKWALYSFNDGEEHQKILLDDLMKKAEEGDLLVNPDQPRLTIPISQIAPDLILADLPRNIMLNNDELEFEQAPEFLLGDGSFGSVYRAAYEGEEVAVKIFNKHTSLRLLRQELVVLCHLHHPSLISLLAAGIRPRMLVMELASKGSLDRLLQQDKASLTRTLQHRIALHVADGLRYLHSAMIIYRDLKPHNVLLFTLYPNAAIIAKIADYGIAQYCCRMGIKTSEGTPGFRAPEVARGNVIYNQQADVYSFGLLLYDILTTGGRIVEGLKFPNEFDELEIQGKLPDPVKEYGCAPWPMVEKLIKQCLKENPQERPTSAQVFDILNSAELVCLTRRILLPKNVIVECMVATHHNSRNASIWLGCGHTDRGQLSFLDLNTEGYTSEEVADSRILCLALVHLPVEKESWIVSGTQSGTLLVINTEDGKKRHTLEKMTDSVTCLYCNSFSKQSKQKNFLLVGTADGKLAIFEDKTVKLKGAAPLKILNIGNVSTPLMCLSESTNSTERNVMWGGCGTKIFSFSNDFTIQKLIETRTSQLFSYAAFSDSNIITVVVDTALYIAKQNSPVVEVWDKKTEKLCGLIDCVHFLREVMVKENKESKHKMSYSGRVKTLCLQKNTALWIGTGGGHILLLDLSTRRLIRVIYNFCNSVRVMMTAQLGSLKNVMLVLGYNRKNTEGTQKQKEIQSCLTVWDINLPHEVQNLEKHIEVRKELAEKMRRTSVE

SMILES | Dmax [%] | DC50 [µM]
COc1c(C2CCN([C@H]3C[C@H](OC4CCN(c5cc(-c6[nH]nc7ccc(OC8(C)CC8)cc67)ncn5)CC4)C3)CC2)ccc2c1CN(C1CCC(=O)NC1=O)C2=O (some centres unmarked) [Compound 329, 3-(4-methoxy-1-oxo-5-{1-[(1r,3r)-3-[(1-{6-[5-(1-methylcyclopropoxy)-2H-indazol-3-yl]pyrimidin-4-yl}piperidin-4-yl)oxy]cyclobutyl]piperidin-4-yl}-2,3-dihydro-1H-isoindol-2-yl)piperidine-2,6-dione] | 50 to 70 | < 0.01
CC1(Oc2ccc3[nH]nc(-c4cc(N5CCC(CN6CCN(C[C@H]7CCN(c8ccc9c(c8F)CN(C8CCC(=O)NC8=O)C9=O)C7)CC6)CC5)ncn4)c3c2)CC1 (stereo partly drawn) [Compound 330, 3-{4-fluoro-5-[(3R)-3-({4-[(1-{6-[5-(1-methylcyclopropoxy)-1H-indazol-3-yl]pyrimidin-4-yl}piperidin-4-yl)methyl]piperazin-1-yl}methyl)pyrrolidin-1-yl]-1-oxo-2,3-dihydro-1H-isoindol-2-yl}piperidine-2,6-dione] | 50 to 70 | < 0.01
COc1c(N2CCC(CN3CCN(C(C)(C)C4CCN(c5cc(-c6n[nH]c7ccc(OC8(C)CC8)cc67)ncn5)CC4)CC3)CC2)ccc2c1CN(C1CCC(=O)NC1=O)C2=O (centres unmarked) [Compound 331, 3-{4-methoxy-5-[4-({4-[2-(1-{6-[5-(1-methylcyclopropoxy)-1H-indazol-3-yl]pyrimidin-4-yl}piperidin-4-yl)propan-2-yl]piperazin-1-yl}methyl)piperidin-1-yl]-1-oxo-2,3-dihydro-1H-isoindol-2-yl}piperidine-2,6-dione] | 50 to 70 | < 0.01
COc1c(N2CC3(CCN(CC4CCN(c5cc(-c6n[nH]c7ccc(OC8(C)CC8)cc67)ncn5)CC4)CC3(F)F)C2)ccc2c1CN(C1CCC(=O)NC1=O)C2=O (centres unmarked) [Compound 332, 3-(5-{5,5-difluoro-7-[(1-{6-[5-(1-methylcyclopropoxy)-1H-indazol-3-yl]pyrimidin-4-yl}piperidin-4-yl)methyl]-2,7-diazaspiro[3.5]nonan-2-yl}-4-methoxy-1-oxo-2,3-dihydro-1H-isoindol-2-yl)piperidine-2,6-dione] | 50 to 70 | < 0.01
Cc1c(N2CCC(O[C@H]3CC[C@H](CN4CCN(c5cc(-c6n[nH]c7ccc(OC8(C)CC8)cc67)ncn5)CC4)CC3)CC2)ccc2c1CN(C1CCC(=O)NC1=O)C2=O (some centres unmarked) [Compound 333, 3-(4-methyl-5-(4-(((1r,4r)-4-((4-(6-(5-(1-methylcyclopropoxy)-1H-indazol-3-yl)pyrimidin-4-yl)piperazin-1-yl)methyl)cyclohexyl)oxy)piperidin-1-yl)-1-oxoisoindolin-2-yl)piperidine-2,6-dione] | 50 to 70 | < 0.01
CC1(Oc2ccc3n[nH]c(-c4cc(N5CCN(C[C@H]6C[C@H](CN7CCN(c8ccc9c(c8F)CN(C8CCC(=O)NC8=O)C9=O)CC7)C6)CC5)ncn4)c3c2)CC1 (some centres unmarked) [Compound 334, 3-[4-fluoro-1-oxo-5-(4-{[(1r,3r)-3-[(4-{6-[5-(1-methylcyclopropoxy)-2H-indazol-3-yl]pyrimidin-4-yl}piperazin-1-yl)methyl]cyclobutyl]methyl}piperazin-1-yl)-2,3-dihydro-1H-isoindol-2-yl]piperidine-2,6-dione] | 50 to 70 | < 0.01
CC1(Oc2ccc3n[nH]c(-c4cc(N5CCC(O[C@H]6C[C@H](N7CC8(CCN(c9ccc%10c(c9F)CN(C9CCC(=O)NC9=O)C%10=O)CC8)C7)C6)CC5)ncn4)c3c2)CC1 (some centres unmarked) [Compound 335, 3-(4-fluoro-1-oxo-5-{2-[(1r,3r)-3-[(1-{6-[5-(1-methylcyclopropoxy)-2H-indazol-3-yl]pyrimidin-4-yl}piperidin-4-yl)oxy]cyclobutyl]-2,7-diazaspiro[3.5]nonan-7-yl}-2,3-dihydro-1H-isoindol-2-yl)piperidine-2,6-dione] | 50 to 70 | < 0.01
